Test results reported in US8686024B2, “Indoline derivatives” (priority 2009, dated 2014).
Like-named read-outs stand apart in the source and are kept apart here.

How the values were obtained:
[1] = molecular target: T1, butyrylcholine esterase (BuChE) (Mus musculus, UniProt Q03311); assay: In vitro assay for choline esterase inhibition (Ellman method), butyrylthiocholine substrate, mouse serum; format: biochemical; conditions: for Ratio AChE/BuChE: selectivity for BuChE inhibition: IC50 (AchE)/IC50 (BuChE); for selectivity to butyrylcholinesterase (BuChE versus AChE inhibitory activity), in words: summary of Tables 1-3
T1 construct: brain homogenate and serum of mouse were used as choline esterase enzyme sources; from tissue; host or cells: mouse serum
Protocol: (§1) For measurement of esterase activity, brain homogenate and serum of mouse were used as choline esterase enzyme sources, and the method of Ellman et. al (Biochemical pharmacology 7: 88-95 1961) were referred. Compound of each example were diluted in dimethylsulfoxide.
(§2) In detail, acetylthiocholine or butyrylthiocholine as substrates, test compounds, and DNTB [[…]] were added to the mouse brain homogenate or serum, respectively.
(§3) After incubation, thiocholine was produced by enzyme reaction in the mixture, and then, the yellow product was formed by the reaction of thiocholine and DTNB. The activity of acetylcholine esterase (AChE) or butyrylcholine esterase (BuChE) was evaluated by determination of absorbance at 415 nm. […] And the selectivity for BuChE inhibition of each compound was calculated by the ratio: IC50 (AchE)/IC50 (BuChE).

[2] = molecular target: T2, acetylcholine esterase (AChE) (Mus musculus, UniProt P21836); assay: In vitro assay for choline esterase inhibition (Ellman method), acetylthiocholine substrate, mouse brain homogenate; format: biochemical
T2 construct: brain homogenate and serum of mouse were used as choline esterase enzyme sources; from tissue; host or cells: mouse brain homogenate
T2 sequence (P21836 32-614): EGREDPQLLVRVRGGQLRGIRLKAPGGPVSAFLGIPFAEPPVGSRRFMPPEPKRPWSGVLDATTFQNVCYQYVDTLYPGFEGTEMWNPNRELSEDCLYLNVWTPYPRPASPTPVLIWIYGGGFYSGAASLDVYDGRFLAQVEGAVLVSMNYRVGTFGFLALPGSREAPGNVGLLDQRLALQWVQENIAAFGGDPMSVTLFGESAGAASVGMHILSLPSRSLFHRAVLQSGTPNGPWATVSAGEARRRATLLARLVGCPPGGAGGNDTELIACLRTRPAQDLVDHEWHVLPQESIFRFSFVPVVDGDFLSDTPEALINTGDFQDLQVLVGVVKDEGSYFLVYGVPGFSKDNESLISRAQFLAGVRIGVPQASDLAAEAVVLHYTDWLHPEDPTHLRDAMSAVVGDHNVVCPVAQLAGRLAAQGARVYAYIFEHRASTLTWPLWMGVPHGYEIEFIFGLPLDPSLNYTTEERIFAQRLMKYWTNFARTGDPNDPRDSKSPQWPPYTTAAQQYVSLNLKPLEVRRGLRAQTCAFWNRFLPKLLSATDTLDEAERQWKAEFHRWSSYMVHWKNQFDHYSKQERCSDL
Protocol: as §1, §2, §3

[3] = mouse serum, butyrylthiocholine, absorbance at 415 nm, read-out: BuChE inhibitory activity IC50
[4] = mouse brain homogenate, acetylthiocholine, absorbance at 415 nm, read-out: AChE inhibitory activity IC50

T1 sequence (Q03311 30-603): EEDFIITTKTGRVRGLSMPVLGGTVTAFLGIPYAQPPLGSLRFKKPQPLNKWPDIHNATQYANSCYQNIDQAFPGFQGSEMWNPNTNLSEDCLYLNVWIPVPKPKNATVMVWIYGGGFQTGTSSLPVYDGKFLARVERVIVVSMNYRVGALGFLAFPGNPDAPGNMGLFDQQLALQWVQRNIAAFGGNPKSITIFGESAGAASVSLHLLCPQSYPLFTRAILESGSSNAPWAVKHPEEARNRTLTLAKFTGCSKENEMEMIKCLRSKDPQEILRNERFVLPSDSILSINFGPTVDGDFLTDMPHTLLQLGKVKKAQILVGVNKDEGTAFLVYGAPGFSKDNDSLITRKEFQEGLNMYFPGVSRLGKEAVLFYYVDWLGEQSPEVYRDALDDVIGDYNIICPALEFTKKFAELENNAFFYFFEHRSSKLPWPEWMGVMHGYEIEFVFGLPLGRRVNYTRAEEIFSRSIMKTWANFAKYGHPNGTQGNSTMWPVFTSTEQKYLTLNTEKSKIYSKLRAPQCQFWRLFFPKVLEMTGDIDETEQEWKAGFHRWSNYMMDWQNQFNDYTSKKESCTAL

SMILES | IC50 [1] [nM] | Ratio AChE/BuChE [1] | IC50 [2] [nM] | IC50 [1, 3] [nM] | IC50 [2, 4] [nM] | selectivity to butyrylcholinesterase (BuChE versus AChE inhibitory activity), in words [1]
Cc1ccc(NC(=O)Oc2ccc3c(c2)CCN3Cc2ccccc2)cc1C [Example 113, 1-benzylindolin-5-yl 3,4-dimethylphenylcarbamate] | 160 | >630 | > 100000 | – | – | –
CCCNC(=O)Oc1ccc2c(c1)CCN2Cc1ccccc1 [Example 114, 1-benzylindolin-5-yl n-propylcarbamate] | – | 29 | – | 180 | 5200 | –
COc1ccc(NC(=O)Oc2ccc3c(c2)CCN3Cc2ccccc2)cc1 [Example 9, 1-benzylindolin-5-yl 4-methoxyphenylcarbamate] | 98 | >1000 | > 100000 | – | – | much higher
CSCCCNC(=O)Oc1ccc2c(c1)CCN2Cc1ccccc1 [Example 49, 1-benzylindolin-5-yl 3-methylthiopropylcarbamate] | – | 530 | – | 12 | 6300 | much higher
C[C@H](NC(=O)Oc1ccc2c(c1)CCN2Cc1ccccc1)c1ccccc1 [Example 19, 1-benzylindolin-5-yl (S)-1-phenylethylcarbamate] | 190 | >530 | > 100000 | – | – | –
CC(C)c1ccc(NC(=O)Oc2ccc3c(c2)CCN3Cc2ccncc2)cc1 [Example 27, 1-(4-pyridylmethyl)indolin-5-yl 4-isopropylphenylcarbamate] | 1100 | >91 | > 100000 | – | – | –
CCCN(CCC)C(=O)CC1c2cc(OC(=O)Nc3ccc(C(C)C)cc3)ccc2N(Cc2ccccc2)C1C (stereo not shown) [Example 162, 1-benzyl-3-(di-n-propylaminocarbonylmethyl)-2-methylindolin-5-yl 4-isopropyl phenylcarbamate] | 410 | >240 | > 100000 | – | – | –
O=C(NCC1CCCCC1)Oc1ccc2c(c1)CCN2Cc1ccccn1 [Example 148, 1-(2-pyridylmethyl)indolin-5-yl cyclohexylmethylcarbamate] | – | 600 | – | 2 | 1200 | much higher
CN(CC1CCCCC1)C(=O)Oc1ccc2c(c1)CCN2Cc1ccccc1 [Example 214, O-(1-benzylindolin-5-yl)-N-(cyclohexylmethyl)-N-methylcarbamate] | 51 | >2000 | > 100000 | – | – | much higher
CN(C)CC(C)(C)CNC(=O)Oc1ccc2c(c1)CCN2Cc1ccccc1 [Example 156, 1-benzylindolin-5-yl 3-dimethylamino-2,2-dimethylpropylcarbamate] | 510 | >200 | > 100000 | – | – | –
CCCCCCNC(=O)Oc1ccc2c(c1)CCN2Cc1ccccn1 [Example 147, 1-(2-pyridylmethyl)indolin-5-yl n-hexylcarbamate] | – | 23 | – | 11 | 250 | –
CC(C)(C)C1CCC(NC(=O)Oc2ccc3c(c2)CCN3Cc2ccccc2)CC1 (stereo not shown) [Example 43, 1-benzylindolin-5-yl 4-tert-butylcyclohexylcarbamate] | 170 | >590 | > 100000 | – | – | –
Cc1ccc(CCNC(=O)Oc2ccc3c(c2)CCN3Cc2ccccc2)cc1 [Example 91, 1-benzylindolin-5-yl-4-methylphenethylcarbamate] | – | >1700 | – | 59 | > 100000 | much higher
Cc1ccc(CNC(=O)Oc2ccc3c(c2)CCN3Cc2ccccc2)cc1 [Example 99, 1-benzylindolin-5-yl-4-methylbenzylcarbamate] | – | 670 | – | 21 | 14000 | much higher
O=C(NC1Cc2ccccc2C1)Oc1ccc2c(c1)CCN2Cc1ccccc1 [Example 44, 1-benzylindolin-5-yl 2-indanylcarbamate] | 32 | >3100 | > 100000 | – | – | much higher
COC1C=CC(CNC(=O)Oc2ccc3c(c2)CCN3Cc2ccccc2)(OC)O1 (stereo not shown) [Example 122, 1-benzylindolin-5-yl (2,5-dihydro-2,5-dimethoxyfuran-2-yl)methylcarbamate] | 480 | >210 | > 100000 | – | – | –
O=C(NCCc1ccc(Cl)cc1Cl)Oc1ccc2c(c1)CCN2Cc1ccccc1 [Example 118, 1-benzylindolin-5-yl 2,4-dichlorophenethylcarbamate] | 10 | >10000 | > 100000 | – | – | much higher
O=C(NCCSCc1ccco1)Oc1ccc2c(c1)CCN2Cc1ccccc1 [Example 54, 1-benzylindolin-5-yl 2-(furfurylthio)ethylcarbamate] | 15 | >6700 | > 100000 | – | – | much higher
Cc1ccc(CCNC(=O)Oc2ccc3c(c2)CCN3Cc2ccccc2)c(C)c1 [Example 116, 1-benzylindolin-5-yl 2,4-dimethylphenethylcarbamate] | 45 | >2200 | > 100000 | – | – | much higher
C=C(C)CNC(=O)Oc1ccc2c(c1)CCN2Cc1ccccc1 [Example 53, 1-benzylindolin-5-yl 2-methylallylcarbamate] | – | 1600 | – | 28 | 46000 | much higher
COc1cc(CN2CCc3cc(OC(=O)Nc4ccc(C(C)C)cc4)ccc32)ccc1O [Example 67, 1-(4-hydroxy-3-methoxybenzyl)indolin-5-yl-4-isopropylphenylcarbamate] | – | >77 | – | 1300 | > 100000 | –
CC(C)c1ccc(NC(=O)Oc2ccc3c(c2)CCN3Cc2ccc(O)cc2)cc1 [Example 78, 1-(4-hydroxybenzyl)indolin-5-yl 4-isopropylphenylcarbamate] | 820 | >120 | > 100000 | – | – | –
O=C(NCCc1ccncc1)Oc1ccc2c(c1)CCN2Cc1ccccc1 [Example 119, 1-benzylindolin-5-yl 2-(4-pyridyl)ethylcarbamate] | – | 240 | – | 59 | 14000 | much higher
CN(C)c1ccc(NC(=O)Oc2ccc3c(c2)CCN3Cc2ccccc2)cc1 [Example 133, 1-benzylindolin-5-yl 4-dimethylaminophenylcarbamate] | 39 | >2600 | > 100000 | – | – | much higher
Cc1ccccc1CCNC(=O)Oc1ccc2c(c1)CCN2Cc1ccccc1 [Example 115, 1-benzylindolin-5-yl 2-methylphenethylcarbamate] | – | 1200 | – | 10 | 12000 | much higher
CC(C)c1ccc(NC(=O)Oc2ccc3c(c2)C(C)CN3Cc2ccccc2)cc1 (stereo not shown) [Example 146, 1-benzyl-3-methylindolin-5-yl-4-isopropylphenylcarbamate] | – | >560 | – | 180 | > 100000 | –
O=C(NCCc1cccnc1)Oc1ccc2c(c1)CCN2Cc1ccccc1 [Example 120, 1-benzylindolin-5-yl 2-(3-pyridyl)ethylcarbamate] | – | 350 | – | 24 | 8500 | much higher
O=C(NCc1cccs1)Oc1ccc2c(c1)CCN2Cc1ccccc1 [Example 98, 1-benzylindolin-5-yl 2-thiophenemethylcarbamate] | – | 130 | – | 12 | 1600 | much higher
CC(=O)NCCC1CN(Cc2ccccc2)c2ccc(OC(=O)Nc3ccc(C(C)C)cc3)cc21 (stereo not shown) [Example 160, 3-(2-acetamidethyl)-1-benzylindolin-5-yl-4-isopropylphenylcarbamate] | 550 | >180 | > 100000 | – | – | –
